Data published in the supplement of paper PMC10307832.

Legend:
Assay in all cases: relative viability (nuclei count vs DMSO), 5 days (fraction); higher = more cells survive
NCI-H2087 = test system: NCI-H2087
Outline: (§1)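 Lung cancer cell lines in 1536-well plates got either a single drug or a fixed anchor-drug dose together with five library-drug doses (not always all listed) in √10 steps, by pin tool, on the day after seeding. Nuclei were counted after 5 days, and relative viability is the treated-to-vehicle ratio of nuclei counts. Values are medians of duplicate plates.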

NCI-H1944 = test system: NCI-H1944
Outline: as §1

NCI-H1651 = test system: NCI-H1651
Outline: as §1

LC-2-ad = test system: LC-2-ad
Outline: as §1

LOU-NH91 = test system: LOU-NH91
Outline: as §1

RERF-LC-KJ = test system: RERF-LC-KJ
Outline: as §1

ABC-1 = test system: ABC-1
Outline: as §1

NCI-H2228 = test system: NCI-H2228
Outline: as §1

PC-3 [JPC-3] = test system: PC-3 [JPC-3]
Outline: as §1

NCI-H3122 = test system: NCI-H3122
Outline: as §1

LU99A = test system: LU99A
Outline: as §1

NCI-H2405 = test system: NCI-H2405
Outline: as §1

HCC-78 = test system: HCC-78
Outline: as §1

NCI-H1755 = test system: NCI-H1755
Outline: as §1

NCI-H1395 = test system: NCI-H1395
Outline: as §1

NCI-H460 = test system: NCI-H460
Outline: as §1

CAL-12T = test system: CAL-12T
Outline: as §1

UMC-11 = test system: UMC-11
Outline: as §1

HCC-366 = test system: HCC-366
Outline: as §1

NCI-H1793 = test system: NCI-H1793
Outline: as §1

## CC(=O)O[C@@]12CO[C@@H]1C[C@H](O)[C@@]1(C)C(=O)[C@H](O)C3=C(C)[C@@H](OC(=O)[C@H](O)[C@@H](NC(=O)OC(C)(C)C)c4ccccc4)C[C@@](O)([C@@H](OC(=O)c4ccccc4)[C@H]21)C3(C)C [Docetaxel] + C[C@]1(O)C[C@@H](c2nc(-c3ccc4ccc(-c5ccccc5)nc4c3)c3c(N)nccn32)C1 [Linsitinib] (partner 1 µM)
NCI-H2087; first compound 0.0002 µM
  relative viability: 0.848
NCI-H2087; first compound 0.000632 µM
  relative viability: 0.68
NCI-H2087; first compound 0.002 µM
  relative viability: 0.301
NCI-H2087; first compound 0.006325 µM
  relative viability: 0.326
NCI-H2087; first compound 0.02 µM
  relative viability: 0.156
NCI-H1944; first compound 0.0002 µM
  relative viability: 1.11
NCI-H1944; first compound 0.000632 µM
  relative viability: 1.13
NCI-H1944; first compound 0.002 µM
  relative viability: 1.18
NCI-H1944; first compound 0.006325 µM
  relative viability: 0.349
NCI-H1944; first compound 0.02 µM
  relative viability: 0.208
NCI-H1651; first compound 0.0002 µM
  relative viability: 0.876
NCI-H1651; first compound 0.000632 µM
  relative viability: 0.746
NCI-H1651; first compound 0.002 µM
  relative viability: 0.229
NCI-H1651; first compound 0.006325 µM
  relative viability: 0.112
NCI-H1651; first compound 0.02 µM
  relative viability: 0.117
LC-2-ad; first compound 0.0002 µM
  relative viability: 0.714
LC-2-ad; first compound 0.000632 µM
  relative viability: 0.223
LC-2-ad; first compound 0.002 µM
  relative viability: 0.185
LC-2-ad; first compound 0.006325 µM
  relative viability: 0.159
LC-2-ad; first compound 0.02 µM
  relative viability: 0.112
LOU-NH91; first compound 0.0002 µM
  relative viability: 0.967
LOU-NH91; first compound 0.000632 µM
  relative viability: 0.8
LOU-NH91; first compound 0.002 µM
  relative viability: 0.586
LOU-NH91; first compound 0.006325 µM
  relative viability: 0.434
LOU-NH91; first compound 0.02 µM
  relative viability: 0.324
RERF-LC-KJ; first compound 0.0002 µM
  relative viability: 0.864
RERF-LC-KJ; first compound 0.000632 µM
  relative viability: 0.826
RERF-LC-KJ; first compound 0.002 µM
  relative viability: 0.504
RERF-LC-KJ; first compound 0.006325 µM
  relative viability: 0.207
RERF-LC-KJ; first compound 0.02 µM
  relative viability: 0.145
ABC-1; first compound 0.0002 µM
  relative viability: 0.834
ABC-1; first compound 0.000632 µM
  relative viability: 1
ABC-1; first compound 0.002 µM
  relative viability: 0.424
ABC-1; first compound 0.006325 µM
  relative viability: 0.286
ABC-1; first compound 0.02 µM
  relative viability: 0.218
NCI-H2228; first compound 0.0002 µM
  relative viability: 0.326
NCI-H2228; first compound 0.000632 µM
  relative viability: 0.197
NCI-H2228; first compound 0.002 µM
  relative viability: 0.173
NCI-H2228; first compound 0.006325 µM
  relative viability: 0.155
NCI-H2228; first compound 0.02 µM
  relative viability: 0.129
PC-3 [JPC-3]; first compound 0.0002 µM
  relative viability: 0.983
PC-3 [JPC-3]; first compound 0.000632 µM
  relative viability: 0.96
PC-3 [JPC-3]; first compound 0.002 µM
  relative viability: 0.863
PC-3 [JPC-3]; first compound 0.006325 µM
  relative viability: 0.37
PC-3 [JPC-3]; first compound 0.02 µM
  relative viability: 0.184
NCI-H3122; first compound 0.0002 µM
  relative viability: 1
NCI-H3122; first compound 0.000632 µM
  relative viability: 1
NCI-H3122; first compound 0.002 µM
  relative viability: 0.79
NCI-H3122; first compound 0.006325 µM
  relative viability: 0.349
NCI-H3122; first compound 0.02 µM
  relative viability: 0.218
LU99A; first compound 0.0002 µM
  relative viability: 0.52
LU99A; first compound 0.000632 µM
  relative viability: 0.458
LU99A; first compound 0.002 µM
  relative viability: 0.356
LU99A; first compound 0.006325 µM
  relative viability: 0.262
LU99A; first compound 0.02 µM
  relative viability: 0.169
NCI-H2405; first compound 0.0002 µM
  relative viability: 0.95
NCI-H2405; first compound 0.000632 µM
  relative viability: 0.913
NCI-H2405; first compound 0.002 µM
  relative viability: 0.667
NCI-H2405; first compound 0.006325 µM
  relative viability: 0.438
NCI-H2405; first compound 0.02 µM
  relative viability: 0.316
HCC-78; first compound 0.0002 µM
  relative viability: 0.469
HCC-78; first compound 0.000632 µM
  relative viability: 0.429
HCC-78; first compound 0.002 µM
  relative viability: 0.339
HCC-78; first compound 0.006325 µM
  relative viability: 0.284
HCC-78; first compound 0.02 µM
  relative viability: 0.222
NCI-H1755; first compound 0.0002 µM
  relative viability: 0.948
NCI-H1755; first compound 0.000632 µM
  relative viability: 0.971
NCI-H1755; first compound 0.002 µM
  relative viability: 0.48
NCI-H1755; first compound 0.006325 µM
  relative viability: 0.384
NCI-H1755; first compound 0.02 µM
  relative viability: 0.302
NCI-H1395; first compound 0.0002 µM
  relative viability: 1.05
NCI-H1395; first compound 0.000632 µM
  relative viability: 1.19
NCI-H1395; first compound 0.002 µM
  relative viability: 0.787
NCI-H1395; first compound 0.006325 µM
  relative viability: 0.431
NCI-H1395; first compound 0.02 µM
  relative viability: 0.336
NCI-H460; first compound 0.0002 µM
  relative viability: 0.715
NCI-H460; first compound 0.000632 µM
  relative viability: 0.153
NCI-H460; first compound 0.002 µM
  relative viability: 0.0174
NCI-H460; first compound 0.006325 µM
  relative viability: 0.0113
NCI-H460; first compound 0.02 µM
  relative viability: 0.0074
CAL-12T; first compound 0.0002 µM
  relative viability: 0.725
CAL-12T; first compound 0.000632 µM
  relative viability: 0.694
CAL-12T; first compound 0.002 µM
  relative viability: 0.303
CAL-12T; first compound 0.006325 µM
  relative viability: 0.184
CAL-12T; first compound 0.02 µM
  relative viability: 0.14
UMC-11; first compound 0.0002 µM
  relative viability: 0.982
UMC-11; first compound 0.000632 µM
  relative viability: 0.905
UMC-11; first compound 0.002 µM
  relative viability: 0.278
UMC-11; first compound 0.006325 µM
  relative viability: 0.237
UMC-11; first compound 0.02 µM
  relative viability: 0.183
HCC-366; first compound 0.0002 µM
  relative viability: 0.423
HCC-366; first compound 0.000632 µM
  relative viability: 0.545
HCC-366; first compound 0.002 µM
  relative viability: 0.0386
HCC-366; first compound 0.006325 µM
  relative viability: 0.012
HCC-366; first compound 0.02 µM
  relative viability: 0.0114
NCI-H1793; first compound 0.0002 µM
  relative viability: 1.01
NCI-H1793; first compound 0.000632 µM
  relative viability: 0.939
NCI-H1793; first compound 0.002 µM
  relative viability: 0.666
NCI-H1793; first compound 0.006325 µM
  relative viability: 0.352
NCI-H1793; first compound 0.02 µM
  relative viability: 0.218
